≈ marks a conversion by molar mass, not a printed value.
Experiments:
Assay type in all cases: in vivo
[1] = test system: 2nd-instar larvae of Chilo suppressalis (Walker); assay: Joint toxicity of I-72 + carbaryl, rice stalk spraying, Example 23, Table 23
Source text: In addition, a blank control was set up.
The treated test materials were placed in an observation room, and the temperature, humidity and illumination of the observation room could be adjusted as needed.

[2] = test system: 2nd-instar larvae of Spodoptera exigua Hübner; assay: Joint toxicity of I-72 + lufenuron, Example 54, Table 54; conditions: foliar, A = compound I-72, B = lufenuron, cabbage leaf dipping, 72 hours, read-out: LC50
Protocol: Test target: 2nd-instar larvae of Spodoptera exigua Hübner.
(§1) Preparation of the pesticide solution: according to different test requirements, the test samples were accurately weighed respectively with an electronic analytical balance. The technical pesticides were dissolved in acetone, and then diluted with 0.1% Tween 80 water into a series of pesticide solutions with a certain concentration gradient according to the experimental design dosage.
(§2) Experimental method: first, cabbage leaves were selected and dipped in the prepared pesticide solution for 10 s in the order from low dosage to high dosage according to the experimental design. After natural air-drying in the shade, they were placed in a 9-cm-diameter Petri dish with filter paper, and uniform and healthy test insects were introduced, with 10 insects for each treatment and 3 replicates for each treatment. In addition, a blank control was set up.
(§3) The treated test materials were placed in an observation room, and the temperature, humidity and illumination of the observation room could be adjusted as needed. The number of dead and live insects was investigated 72 hours later. […] Then, the co-toxicity coefficient of each ratio was calculated using the Sun Y-P method to evaluate the mixing effect (the same as in Example 1).

[3] = test system: mixed aphids of Myzus persicae (Sulzer); assay: Joint toxicity of I-72 + matrine, Example 34, Table 34; conditions: A = compound I-72, B = matrine, spraying on cabbage leaves with aphids, 48 hours, read-out: LC50
Source text: Test subject: mixed aphids of Myzus persicae (Sulzer), a sensitive strain reared indoors.
Experimental method: the spraying method on leaves with aphids was adopted. Cabbage leaves with a certain number of Myzus persicae (Sulzer) were taken. The prepared pesticide solutions were evenly sprayed on both the front and back sides of the leaves in the order from low concentration to high concentration according to the experimental design. Then, the leaves were placed in a 6-cm-diameter Petri dish with filter paper. After natural air-drying in the shade, they were placed in the observation room. The experiment had 3 replicates set, and in addition, a blank control was set up. The number of dead and live insects was investigated 48 hours later. The corrected mortality rate was calculated using the Abbott's formula, and the DPS data processing software was used for statistical analysis to calculate the toxicities (LC50 values) of the single test pesticides and the mixtures under the test ratios.
The test conditions, the preparation of the pesticide solution and the evaluation method were the same as those in Example 1.

[4] = test system: 3rd-instar larvae of Ostrinia furnacalis Guenee; assay: Joint toxicity of I-72 + lambda-cyhalothrin, Example 42, Table 42; conditions: A = compound I-72, B = lambda-cyhalothrin, corn stem dipping, 72 hours, read-out: LC50
Protocol: Test target: 3rd-instar larvae of Ostrinia furnacalis Guenee.
as §1
as §2, with “tender corn stems” for “cabbage leaves”
as §3

[5] = test system: Unaspis yanonensis Kuwana nymphs; assay: whole plant or invertebrate; conditions: foliar, A = compound I-72, B = spirotetramat, citrus leaf dipping, 120 hours, read-out: LC50
Protocol: Test target: Unaspis yanonensis Kuwana nymphs.
as §1
Experimental method: the activity of the mixture against Unaspis yanonensis Kuwana nymphs on citrus was determined by adopting the dipping method. First, the collected citrus leaves with Unaspis yanonensis Kuwana nymphs were treated with the pesticide solution in the order from low dosage to high dosage according to the experimental design. After air-drying, the petioles were kept moist with degreased cotton, and then the leaves were placed in a Petri dish, with 3 replicates for each treatment. In addition, a blank control was set up.
The treated test materials were placed in an observation room, and the temperature, humidity and illumination of the observation room could be adjusted as needed. The number of dead and live insects was investigated 120 hours later.

[6] = test system: Spodoptera exigua Hübner; assay: Field efficacy trial of I-72 and Spodoptera exigua Hübner nucleopolyhedrovirus, Example 87, Table 87; conditions: spraying
Protocol: This trial was arranged in the field trial shed area of the Wuhan Vegetable Research Institute. The spraying method was adopted for pesticide application. The investigation method was to take samples at 5 points, with 2 fixed plants at each point. A total of 10 plants were investigated in each plot, and the trial was repeated four times. The population base of pests was investigated before the pesticide application, and investigations were performed 3 days and 7 days after the pesticide application. The amount of water used per mu was 30L. The calculation method for the efficacy of the test pesticides is as follows:
Test pesticides: A: Spodoptera exigua Hübner nucleopolyhedrovirus suspension with 3 billion PIBs (produced by Henan Jiyuan Baiyun Industrial Co., Ltd.); and B: compound I-72 (dissolved in acetone, 0.1% Tween 80 was added, and a 10% stock solution was prepared for use).

[7] = test system: Aphis gossypii Glover nymphs; assay: Joint toxicity of I-72 + flonicamid, Example 74, Table 74; conditions: Aphis gossypii; A = compound I-72, B = flonicamid; cotton leaf spraying; 48 hours; read-out: LC50
Protocol: Test target: Aphis gossypii Glover nymphs, a sensitive strain reared indoors.
as §1
Experimental method: first, cotton leaves with uniform and consistent Aphis gossypii were selected, with about 30-40 insects on each leaf. Then, they were evenly sprayed with the pesticide solution in the order from low dosage to high dosage according to the experimental design, with 1.5 mL for each leaf and 3 replicates for each treatment. In addition, a blank control was set up.
as §3, with “48” for “72”

[8] = test system: 2nd-instar larvae of Plutella xylostella; assay: Joint toxicity of I-72 + tetraniliprole, Example 58, Table 58; conditions: Plutella xylostella, foliar; A = compound I-72, B = tetraniliprole; cabbage leaf dipping; 72 hours; read-out: LC50
Protocol: Test target: 2nd-instar larvae of Plutella xylostella.
as §1, §2, §3

CN(C(=O)c1ccc2c(c1)OC(F)(F)O2)c1cccc(C(=O)Nc2c(Br)cc(C(F)(C(F)(F)F)C(F)(F)F)cc2OC(F)F)c1F [Compound I-72]
LC50 [1]: 0.881 µg/mL | LC50 [2]: 0.273 µg/mL | LC50 [3]: 6.36 µg/mL | LC50 [4]: 0.805 µg/mL | LC50 [5]: 75.2 µg/mL (≈ 101 µM) | Control efficacy 3 days after pesticide application ([6]; dose 6 ml per mu): 59.8% | Control efficacy 7 days after pesticide application ([6]; dose 6 ml per mu): 71.5% | Control efficacy 3 days after pesticide application ([6]; dose 9 ml per mu): 66.5% | Control efficacy 7 days after pesticide application ([6]; dose 9 ml per mu): 75.2% | Control efficacy 3 days after pesticide application ([6]; dose 12 ml per mu): 72.8% | Control efficacy 7 days after pesticide application ([6]; dose 12 ml per mu): 82.4% | LC50 [7]: 2.81 µg/mL | LC50 [8]: 0.0888 µg/mL

Reference: US20260198495A1, “BINARY INSECTICIDE COMPOSITION AND USE THEREOF” (SHENYANG SINOCHEM AGROCHEMICALS R & D CO., LTD., priority 2022, published 2026)
